Tests used:
[1] = system: S. epidermidis (DSM 1798); experiment: P18 in pharmaceutical base formulation (CFU); assay type: cell-based, Staphylococcus epidermidis; details: 10 000 ppm in the formulation, mixed 1:9 with suspension
Protocol: (§1) The aim of the experiment was to study the effect of a pharmaceutical base formulation containing the P18 peptide ingredient (P18 sequence H-KWKLFKKIPKFLHLAKKF-NH2 (Bachem AG, Switzerland)) on further fungi and bacteria. For this purpose, the following base formulation was used: […]
(§2) 1% hydroxycellulose 10% propylene glycol made up with water.
(§3) Based on the base formulation, formulations containing 10 000 ppm of P18 peptide were prepared from a 20% concentrate solution.
(§4) The effect of the formulations on S. epidermidis (DSM 1798), M. furfur (DSM 6170) and T. rubrum (DSM 21146) was studied.
TSBY growth medium for S. epidermidis Ready-made TSB medium (Becton, Dickinson and Company, Sparks, USA) 17 g of pancreatin-degraded casein 3 g of pancreatin-degraded soya 2.5 g of dextrose 5 g of sodium chloride 2.5 g of dipotassium phosphate 3 g of yeast extract (Becton, Dickinson and Company, Sparks, USA) make up to 1 liter, set pH 7 […]
(§5) 1.5 ml reaction vessels were each filled with 1 ml of medium and inoculated with the fungal or bacterial suspension from the overnight culture such that the resulting suspensions at the start of the experiment had been adjusted to an optical density, measured at 600 nm, of 0.1. […] After incubation over 24 hours, the colonies on the plates were counted.

T. rubrum (DSM 21146) = experiment: P18 in pharmaceutical base formulation (CFU); assay type: cell-based, Trichophyton rubrum; details: 10 000 ppm in the formulation, mixed 1:9 with suspension
Protocol: as §1, §2, §3, §4
MEP growth medium according to DSMZ for T. rubrum 30 g of malt extract (Becton, Dickinson and Company, Sparks, USA) 3 g of soya peptone (Becton, Dickinson and Company, Sparks, USA) make up to 1 liter, set pH 5.6.
For T. rubrum, an agar plate on which it had grown was rinsed with 5 ml of medium. 10 μl of the resulting suspension were added to 1 ml of MEP medium and used directly in the experiment.
as §5

M. furfur DSM 6170 = experiment: Comparison of the efficacy of P18 and AFPP (CFU); assay type: cell-based, Malassezia furfur
Source text: WO 00/32220 describes the effect of the antifungal polypeptide AFPP from Aspergillus giganteus on the growth of Malassezia furfur.
In order to compare the effect of P18 (SEQ ID NO. 3; sequence: KWKLFKKIPKFLHLAKKF-NH2 (Bachem. AG, Switzerland)) with the effect of AFPP, AFPP was provided from the culture supernatant of the A. giganteus strain CBS 526.65 (Organobalance, Berlin). The purification was effected according to Theis et al. (Theis T., Wedde M., Meyer V., Stahl U. (2003) The antifungal protein from Aspergillus giganteus causes membrane permeabilization. Antimicrob. Agents Chemother. 47:588-593; Theis T., Marx F., Salvenmoser W., Stahl U., Meyer V. (2005) New insights into the target site and mode of action of the antifungal protein (AFP) of Aspergillus giganteus. Res Microbiol. 156:47-56.)
After replacing the buffer and concentration, a 2% (w/w) AFPP solution in phosphate buffer (10 mM sodium phosphate, pH 7.5, 100 mM NaCl) was obtained.
The P18 concentrate was also present as a 2% (w/w) solution in phosphate buffer.
Growth medium: M472 Pityrosporum medium according to DSMZ (German Collection of Microorganisms and Cell Cultures, Braunschweig, Germany) 40 g of malt extract (Becton, Dickinson and Company, Sparks, USA) 20 g of ox bile (Merck, Darmstadt, Germany)
The growth test was effected as follows: a shake culture containing M472 Pityrosporum medium was inoculated with M. furfur DSM 6170 (DSMZ) and incubated with shaking at 30° C. and 200 rpm overnight.
For each test mixture, a 1.5 ml reaction vessel was filled with Pityrosporum medium and inoculated with the M. furfur overnight culture to give a start OD of 0.1, measured at 600 nm.
The growth of the following test mixtures was monitored: • M. furfur suspension and addition of 30 μl of phosphate buffer (in order to rule out any influence of the phosphate buffer on the effect of the active peptides at a final concentration of 0.1%) • M. furfur suspension and addition of 60 μl of phosphate buffer (in order to rule out any influence of the phosphate buffer on the effect of the active peptides at a final concentration of 0.2%) • M. furfur suspension and addition of 90 μl of phosphate buffer (in order to rule out any influence of the phosphate buffer on the effect of the active peptides at a final concentration of 0.3%) • M. furfur suspension with a final P18 concentration of 0.1% in the reaction volume • M. furfur suspension with a final P18 concentration of 0.2% in the reaction volume • M. furfur suspension with a final P18 concentration of 0.3% in the reaction volume • M. furfur suspension with a final AFPP concentration of 0.1% in the reaction volume • M. furfur suspension with a final AFPP concentration of 0.2% in the reaction volume • M. furfur suspension with a final AFPP concentration of 0.3% in the reaction volume
The reaction volume was 600 μl in each case. The growth of M. furfur in the test mixtures was observed over a period of 24 hours. For this purpose, the mixtures were diluted 1:10 in M472 medium after 5 minutes, 20 minutes and 24 hours, and then 10 μl were plated out. The CFU (colony forming units) were determined by counting after incubation at 30° C. for 6 days.
The experiments were effected in double determination and were independently repeated at least once.

**Q.** Which results are given for “H-KWKLFKKIPKFLHLAKKF-NH2 [P18, H-KWKLFKKIPKFLHLAKKF-NH2]”?
**A.** Colony forming units after the incubation time specified ([1]; 5 minutes): 790 ± 393 CFU; Colony forming units after the incubation time specified ([1]; 60 minutes): 513 ± 20 CFU; Colony forming units after the incubation time specified (T. rubrum (DSM 21146); 5 minutes): 25 ± 8 CFU; Colony forming units after the incubation time specified (T. rubrum (DSM 21146); 60 minutes): 6 ± 1 CFU; Colony forming units after the incubation time specified (M. furfur DSM 6170; 0.1%, 5 minutes): 205 ± 192 CFU; Colony forming units after the incubation time specified (M. furfur DSM 6170; 0.1%, 20 minutes): 48 ± 56 CFU; Colony forming units after the incubation time specified (M. furfur DSM 6170; 0.1%, 24 hours): 0 CFU; Colony forming units after the incubation time specified (M. furfur DSM 6170; 0.2%, 5 minutes): 56 ± 52 CFU; Colony forming units after the incubation time specified (M. furfur DSM 6170; 0.2%, 20 minutes): 5 ± 4 CFU; Colony forming units after the incubation time specified (M. furfur DSM 6170; 0.2%, 24 hours): 0 CFU; Colony forming units after the incubation time specified (M. furfur DSM 6170; 0.3%, 5 minutes): 18 ± 19 CFU; Colony forming units after the incubation time specified (M. furfur DSM 6170; 0.3%, 20 minutes): 1 ± 0 CFU; Colony forming units after the incubation time specified (M. furfur DSM 6170; 0.3%, 24 hours): 0 CFU
